Source: patent US8877748B2, “Heterocyclic fused anthraquinone derivatives, manufacturing method and pharmaceutical composition using thereof” (National Defense Medical Center, priority 2012, dated 2014)

Legend:
NCI-H226 = test: NCI one-dose screening, non-small cell lung cancer NCI-H226; type: cell-based, human; details: NCI-H226, 10 μM
NCI-H460 = test: NCI one-dose screening, non-small cell lung cancer NCI-H460; type: cell-based, human; details: NCI-H460, 10 μM
UACC-257 = test: NCI one-dose screening, melanoma UACC-257; type: cell-based, human; details: UACC-257, 10 μM
SNB-75 = test: NCI one-dose screening, CNS cancer SNB-75; type: cell-based, human; details: SNB-75, 10 μM
OVCAR-8 = test: NCI one-dose screening, ovarian cancer OVCAR-8; type: cell-based, human; details: OVCAR-8, 10 μM
HS 578-T = test: NCI one-dose screening, breast cancer HS 578-T; type: cell-based, human; details: Breast cancer, HS 578T, 10 μM
[1] = tested on: PC-3 prostate cancer cell line; test: SRB assay cell viability, PC-3 prostate cancer cell line; type: cell-based, human; details: Homo sapiens, PC-3 prostate cancer cell line, Table II prints no unit, μM printed, read-out: SRB assay: 50% inhibition of cancer cell proliferation of sample concentration (IC50) of PC-3 prostate cancer cell line
MDA, -MB-435 = test: NCI one-dose screening, breast cancer MDA, -MB-435; type: cell-based, human; details: Melanoma, MDA-MB-435, 10 μM
SN12C = test: NCI one-dose screening, renal cancer SN12C; type: cell-based, human; details: SN12C
SK-MEL-2 = test: NCI one-dose screening, melanoma SK-MEL-2; type: cell-based, human; details: SK-MEL-2, 10 μM
HT29 = test: NCI one-dose screening, colon cancer HT29; type: cell-based, human; details: HT29, 10 μM
OVCAR-4 = test: NCI one-dose screening, ovarian cancer OVCAR-4; type: cell-based, human; details: OVCAR-4, 10 μM
LOX IMVI = test: NCI one-dose screening, melanoma LOX IMVI; type: cell-based, human; details: LOX IMVI
human tumor cell lines = test: NCI one-dose screening, mean, delta and range of growth percent over all cell lines tested; type: cell-based
CAKI-1 = test: NCI one-dose screening, renal cancer CAKI-1; type: cell-based, human; details: CAKI-1, 10 μM
SNB-19 = test: NCI one-dose screening, CNS cancer SNB-19; type: cell-based, human; details: SNB-19, 10 μM
UACC-62 = test: NCI one-dose screening, melanoma UACC-62; type: cell-based, human; details: UACC-62, 10 μM
HOP-62 = test: NCI one-dose screening, non-small cell lung cancer HOP-62; type: cell-based, human; details: HOP-62, 10 μM
786-O = test: NCI one-dose screening, renal cancer 786-O; type: cell-based, human; details: 786-0, 10 μM
OVCAR-3 = test: NCI one-dose screening, ovarian cancer OVCAR-3; type: cell-based, human; details: OVCAR-3, 10 μM
ACHN = test: NCI one-dose screening, renal cancer ACHN; type: cell-based, human; details: ACHN
KM12 = test: NCI one-dose screening, colon cancer KM12; type: cell-based, human; details: KM12, 10 μM
MOLT-4 = test: NCI one-dose screening, leukemia MOLT-4; type: cell-based, human; details: MOLT-4, 10 μM
T-47D = test: NCI one-dose screening, breast cancer T-47D; type: cell-based, human; details: T-47D
TK-10 = test: NCI one-dose screening, renal cancer TK-10; type: cell-based, human; details: TK-10, 10 μM
MCF7 = test: NCI one-dose screening, breast cancer MCF7; type: cell-based, human; details: MCF7, 10 μM
MDA-MB-231/ATCC = test: NCI one-dose screening, breast cancer MDA-MB-231/ATCC; type: cell-based, human; details: MDA-MB-231/ATCC
DU145 = test: NCI one-dose screening, prostate cancer DU145; type: cell-based, human; details: DU145, 10 μM
HCT-116 = test: NCI one-dose screening, colon cancer HCT-116; type: cell-based, human; details: HCT-116, 10 μM
SR = test: NCI one-dose screening, leukemia SR; type: cell-based, human; details: SR
COLO 205 = test: NCI one-dose screening, colon cancer COLO 205; type: cell-based, human; details: COLO 205, 10 μM
IGROV1 = test: NCI one-dose screening, ovarian cancer IGROV1; type: cell-based, human; details: IGROV1, 10 μM
SK-MEL-28 = test: NCI one-dose screening, melanoma SK-MEL-28; type: cell-based, human; details: SK-MEL-28, 10 μM
MALME-3M = test: NCI one-dose screening, melanoma MALME-3M; type: cell-based, human; details: MALME-3M
EKVX = test: NCI one-dose screening, non-small cell lung cancer EKVX; type: cell-based, human; details: EKVX
OVCAR-5 = test: NCI one-dose screening, ovarian cancer OVCAR-5; type: cell-based, human; details: OVCAR-5, 10 μM
SF-268 = test: NCI one-dose screening, CNS cancer SF-268; type: cell-based, human; details: SF-268, 10 μM
MDA-MB-468 = test: NCI one-dose screening, breast cancer MDA-MB-468; type: cell-based, human; details: MDA-MB-468, 10 μM
K562cell line = test: NCI one-dose screening, leukemia K562; type: cell-based, human; details: K562, 10 μM
SK-MEL-5 = test: NCI one-dose screening, melanoma SK-MEL-5; type: cell-based, human; details: SK-MEL-5, 10 μM
UO-31 = test: NCI one-dose screening, renal cancer UO-31; type: cell-based, human; details: UO-31, 10 μM
HCT-15 = test: NCI one-dose screening, colon cancer HCT-15; type: cell-based, human; details: HCT-15, 10 μM
A549/ATCC = test: NCI one-dose screening, non-small cell lung cancer A549/ATCC; type: cell-based, human; details: A549/ATCC

SMILES: O=C1c2ccccc2C(=O)c2c1cc(N1CCCC1)c1nsnc21 [C7, 4-(pyrrolidine-1-yl)anthra-[2,1-c][1,2,5] thiadiazol-6,11-dione]
- Growth Percent (10 μM) (NCI-H226): 78.66%
- Growth Percent (10 μM) (NCI-H460): 89.11%
- Growth Percent (10 μM) (UACC-257): 84.14%
- Growth Percent (10 μM) (SNB-75): 94.52%
- Growth Percent (10 μM) (OVCAR-8): 82.12%
- Growth Percent (10 μM) (HS 578-T): 101.62%
- IC50 [1]: > 15 µM
- Growth Percent (10 μM) (MDA, -MB-435): 105.87%
- Growth Percent (10 μM) (SN12C): 89.82%
- Growth Percent (10 μM) (SK-MEL-2): 115.43%
- Growth Percent (10 μM) (HT29): 98.60%
- Growth Percent (10 μM) (OVCAR-4): 77.50%
- Growth Percent (10 μM) (LOX IMVI): 69.55%
- Growth Percent (10 μM), Delta (human tumor cell lines; Delta over all cell lines tested): 54.57%
- Growth Percent (10 μM), Mean (human tumor cell lines; Mean over all cell lines tested): 85.69%
- Growth Percent (10 μM), Range (human tumor cell lines; Range over all cell lines tested): 109.89%
- Growth Percent (10 μM) (CAKI-1): 70.65%
- Growth Percent (10 μM) (SNB-19): 90.45%
- Growth Percent (10 μM) (UACC-62): 95.64%
- Growth Percent (10 μM) (HOP-62): 79.16%
- Growth Percent (10 μM) (786-O): 96.67%
- Growth Percent (10 μM) (OVCAR-3): 86.97%
- Growth Percent (10 μM) (ACHN): 82.97%
- Growth Percent (10 μM) (KM12): 95.18%
- Growth Percent (10 μM) (MOLT-4): 92.84%
- Growth Percent (10 μM) (T-47D): 78.19%
- Growth Percent (10 μM) (TK-10): 141.01%
- Growth Percent (10 μM) (MCF7): 59.71%
- Growth Percent (10 μM) (MDA-MB-231/ATCC): 95.23%
- Growth Percent (10 μM) (DU145): 105.08%
- Growth Percent (10 μM) (HCT-116): 78.67%
- Growth Percent (10 μM) (SR): 84.23%
- Growth Percent (10 μM) (COLO 205): 82.13%
- Growth Percent (10 μM) (IGROV1): 75.83%
- Growth Percent (10 μM) (SK-MEL-28): 99.46%
- Growth Percent (10 μM) (MALME-3M): 70.73%
- Growth Percent (10 μM) (EKVX): 75.67%
- Growth Percent (10 μM) (OVCAR-5): 111.75%
- Growth Percent (10 μM) (SF-268): 98.43%
- Growth Percent (10 μM) (MDA-MB-468): 84.32%
- Growth Percent (10 μM) (K562cell line): 75.50%
- Growth Percent (10 μM) (SK-MEL-5): 31.12%
- Growth Percent (10 μM) (UO-31): 41.64%
- Growth Percent (10 μM) (HCT-15): 61.25%
- Growth Percent (10 μM) (A549/ATCC): 63.51%
